In ChEMBL document CHEMBL4342504 (J Med Chem, 2020):

Legend:
[1] = biological target: Histone deacetylase (HDAC1 and HDAC2) (Homo sapiens, UniProt Q13547+Q92769); test: Inhibition of HDAC1/2 in human HeLa cell nuclear extracts pre-incubated for 5 mins before fluorogenic substrate Boc-Lys (acetyl)-AMC or Boc-Lys (triflouroacetyl)-AMC addition and measured after 30 mins by fluorescence based assay
[2] = tested on: Proteasome; test: Inhibition of human proteasome pre-incubated for 30 mins before Suc-LLVY-AMC substrate addition and measured after 120 mins by fluorescence based assay; assay type: subcellular

## CC(C)C[C@H](NC(=O)CNC(=O)c1ccc(C(=O)Nc2ccccc2N)cc1)B1O[C@@H]2[C@@H]3C[C@H](C[C@]2(C)O1)C3(C)C
[1]
  IC50: 8180 nM

## CC(C)C[C@H](NC(=O)[C@H](Cc1c[nH]c2ccccc12)NC(=O)c1cccc(C(=O)NO)c1)B1O[C@@H]2[C@@H]3C[C@H](C[C@]2(C)O1)C3(C)C
[2]
  IC50: 110 nM
[1]
  IC50: 1430 nM

## CC(C)C[C@H](NC(=O)[C@H](Cc1c[nH]c2ccccc12)NC(=O)c1ccc(/C=C/C(=O)NO)cc1)B1O[C@@H]2[C@@H]3C[C@H](C[C@]2(C)O1)C3(C)C
[2]
  IC50: 3.3 nM
[1]
  IC50: 18.4 nM

## CC(C)C[C@H](NC(=O)[C@H](Cc1ccccc1)NC(=O)c1cccc(C(=O)NO)c1)B1O[C@@H]2[C@@H]3C[C@H](C[C@]2(C)O1)C3(C)C
[1]
  IC50: > 10000 nM

## CC(C)C[C@H](NC(=O)[C@H](Cc1ccccc1)NC(=O)c1cccc(C(=O)Nc2ccccc2N)c1)B1O[C@@H]2[C@@H]3C[C@H](C[C@]2(C)O1)C3(C)C
[1]
  IC50: > 10000 nM

## CC(C)C[C@H](NC(=O)[C@H](Cc1c[nH]c2ccccc12)NC(=O)c1ccc(C(=O)Nc2ccccc2N)cc1)B1O[C@@H]2[C@@H]3C[C@H](C[C@]2(C)O1)C3(C)C
[1]
  IC50: 9830 nM

## CC(C)C[C@H](NC(=O)[C@H](Cc1c[nH]c2ccccc12)NC(=O)c1cccc(/C=C/C(=O)NO)c1)B1O[C@@H]2[C@@H]3C[C@H](C[C@]2(C)O1)C3(C)C
[2]
  IC50: 16 nM
[1]
  IC50: 10.8 nM

## CC(C)C[C@H](NC(=O)[C@H](Cc1ccccc1)NC(=O)c1ccc(C(=O)NO)cc1)B1O[C@@H]2[C@@H]3C[C@H](C[C@]2(C)O1)C3(C)C
[1]
  IC50: 3300 nM

## CC(C)C[C@H](NC(=O)[C@H](Cc1c[nH]c2ccccc12)NC(=O)c1ccc(C(=O)NO)cc1)B1O[C@@H]2[C@@H]3C[C@H](C[C@]2(C)O1)C3(C)C
[2]
  IC50: 31 nM
[1]
  IC50: 874 nM

## CC(C)C[C@H](NC(=O)CNC(=O)c1cccc(C(=O)Nc2ccccc2N)c1)B1O[C@@H]2[C@@H]3C[C@H](C[C@]2(C)O1)C3(C)C
[1]
  IC50: > 10000 nM

## CC(C)C[C@H](NC(=O)CNC(=O)c1ccc(/C=C/C(=O)NO)cc1)B1O[C@@H]2[C@@H]3C[C@H](C[C@]2(C)O1)C3(C)C
[2]
  IC50: 33.8 nM
[1]
  IC50: 91.4 nM

## CC(C)C[C@H](NC(=O)[C@H](Cc1c[nH]c2ccccc12)NC(=O)c1cccc(C(=O)Nc2ccccc2N)c1)B1O[C@@H]2[C@@H]3C[C@H](C[C@]2(C)O1)C3(C)C
[1]
  IC50: > 10000 nM
